The values below come from PubChem BioAssay (NCI).

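Growth conditions: 96-well plates. Treatment: test compound, 48 hours, 5 concentrations. Analysis: linear interpolation between bracketing concentrations; unreached endpoints set to highest concentration. GI50: concentration for 50% inhibition of growth. The concentration for full growth arrest is given as TGI.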

By GI50 is commonly meant the concentration that inhibits growth by half. As a reminder, the TGI is the concentration at which net growth stops. Read a high TGI as lower sensitivity of the cells.

For the test, the system named is MDA-MB-468 breast. As to the kind of experiment: DTP human tumour cell line panel, 48 h.
As to `Cn1ccnc1C(=O)/C=C/c1ccc(CNC(=O)c2ccc(S(F)(F)(F)(F)F)cc2)cc1`, the GI50 is 3540 nM and the TGI was 8710 nM.
The like results for `Cc1ccc2c(c1)C(=O)c1c-2c(OCCCN(C)C)nc2ccccc12` were, in that order, 1430 nM and 3350 nM.
The like results for `CCCCCCCCCCCCCC[n+]1ccc(C(N)=O)cc1` were, in that order, 401 nM and 2760 nM.
For `COC(=O)c1c2c(c(C)[n+]([O-])c1C)C(=O)C=C(NCc1cccc(Cl)c1)C2=O` the same measures were 225 nM and 732 nM.
Consider `O=C(/C=C1\C(=O)N(Cc2ccccc2)c2ccccc21)c1ccc(OCCN2CCCCC2)cc1`, for which the GI50 is 1920 nM and the TGI came out at 3800 nM.
The like results for `Clc1ccc2nc(CI)c(CI)nc2c1` were, in that order, 4700 nM and 19100 nM.
For `C=C1C(=O)O[C@H]2[C@H]1CC/C(Cn1cc(-c3ccc(F)cc3)nn1)=C\CC[C@@]1(C)O[C@@H]21` the same measures were 421 nM and 1580 nM.
The like results for `C=C1C(=O)O[C@H]2[C@H]1CC/C(COC(=O)CCCc1c[nH]c3ccccc13)=C\CC[C@@]1(C)O[C@@H]21` were, in that order, 1760 nM and 4010 nM.
`N#C/C(=N\Nc1ccccc1)C(=O)Nc1cc(-c2ccccc2)nn1-c1ccccc1`: the GI50 was 1420 nM and the TGI is 5880 nM.
For `COc1ccc(/C=C2\SC(=Nc3ccccc3)NC2=O)cc1` the same measures were 3180 nM and 22000 nM.
For `C[n+]1c2ccccc2nc2ccccc21` the same measures were 711 nM and 2690 nM.
The like results for `O=C(Nc1ccc(F)cc1)Nc1ccc(Br)c(C(F)(F)F)c1` were, in that order, 2220 nM and 9540 nM.
As for `COc1ccc(/C(C#N)=C/c2cc(OC)c(OC)c(OC)c2)cc1`, the GI50 is 19200 nM and the TGI is > 100000 nM.
The like results for `O=C1C(=O)c2ccccc2C(O)=C1CCCc1ccc(C2CCCCC2)cc1` were, in that order, 2200 nM and 21500 nM.
For `Cc1cc(OCCOCCC(F)(F)P(=O)(O)O)ccc1CCc1cnc2c(N)nc3cc(CCC(=O)O)ccc3c2c1` the same measures were > 100000 nM and > 100000 nM.
For `Cn1nc(C(F)(F)F)c(-c2cc(C(F)(F)F)cc(C(F)(F)F)c2)c1-c1ccc(OCc2ccc(Cl)cc2)cc1O` the same measures were 1430 nM and 6360 nM.
As for `COc1ccc(NC(=O)c2sc3nc(C)c(C(=O)/C=C/c4cccc(OC)c4)cc3c2N)cc1`, the GI50 is 732 nM and the TGI worked out at 2240 nM.
Take `CCCCCCCC(=O)SCC/C=C/[C@@H]1CC(=O)NCc2nc(cs2)C2=N[C@@](C)(CS2)C(=O)N[C@@H](C(C)C)C(=O)N1`: the GI50 was < 11.9 nM and the TGI is 1210 nM.
On to `Nc1nc2cc(CC[C@H]3C[C@@H](n4ccc5c(N)ncnc54)[C@H](O)[C@@H]3O)ccc2cc1Br`, for which the GI50 was 234 nM and the TGI came to 7980 nM.
The like results for `CN(C)CCCC1(c2ccc(F)cc2)OCc2cc(-c3cc4ccccc4s3)ccc21` (configuration not stated) were, in that order, 1740 nM and 3410 nM.
For `CCCCCCCCCCCCCCCCOP(=O)([O-])OCC[N+](C)(C)C` the same measures were 1160 nM and 3560 nM.
In the case of `C[C@H]1CNC(=O)c2cnn3ccc(nc23)N[C@H](C)c2cc(F)ccc2O1`, the GI50 is 1850 nM and the TGI turned out to be 14600 nM.
The like results for `C[C@]12CC[C@H]3[C@@H](CC4SC(N)=NC45C/C(=N/NC(N)=O)CC[C@]35C)[C@@H]1CCC2=O` (some centres not stated) were, in that order, 1600 nM and 3170 nM.
As to `O=C(CI)Nc1ccc(O)c2ccccc12`, the GI50 is 900 nM and the TGI was found to be 2570 nM.
The like results for `CC([C@H]1CC=C2C3CCC4=C[C@@H](N(C)C)CC[C@]4(C)C3CC[C@@]21C)N(C)C` (some centres not stated) were, in that order, 1420 nM and 4720 nM.
The like results for `C[C@H]1COCCN1c1cc(C2(S(=O)(=O)C3CC3)CC2)nc(-c2ccc(NC(=S)NCCO)cc2)n1` were, in that order, < 10.8 nM and 93.6 nM.
